This note sets out measurements from patent US9809573B2, “Substituted pyridine derivatives useful as GSK-3 inhibitors” (priority 2013, dated 2017).

Read-outs that look alike come from different tables or passages of the source. Some results are limits rather than exact numbers.

One assay has as its target GSK3α (Homo sapiens, UniProt P49840). As to the kind of experiment: biochemical. The essentials:
(§1)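 Readout: electrophoretic resolution of phosphorylated from unphosphorylated peptide on a LabChip3000. Reactions incubated 20 h at room temperature before termination with 35 mM EDTA. Eleven-concentration curves gave IC50 via non-linear regression.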

The next assay has as its system pTau. The assay is described as follows: pTau assay (method not described). The assay is classed as cell-based.
A further assay addresses GSK3β (Homo sapiens, UniProt P49841). The assay is described as follows: GSK3β kinase assay (Caliper LabChip3000, fluoresceinated peptide substrate). The class given is biochemical. An outline of the steps:
as §1

Setting [1] is: second value of the cell, 250 pM enzyme, 20 uM ATP, 20 hours at room temperature, read-out: GSK3β/α (nM): GSK3α IC50.
Where [2] appears, read: first value of the cell, 250 pM enzyme, 20 uM ATP, 20 hours at room temperature, read-out: GSK3β/α (nM): GSK3β IC50.

Sequence of GSK3α (P49840 whole entry, species assumed): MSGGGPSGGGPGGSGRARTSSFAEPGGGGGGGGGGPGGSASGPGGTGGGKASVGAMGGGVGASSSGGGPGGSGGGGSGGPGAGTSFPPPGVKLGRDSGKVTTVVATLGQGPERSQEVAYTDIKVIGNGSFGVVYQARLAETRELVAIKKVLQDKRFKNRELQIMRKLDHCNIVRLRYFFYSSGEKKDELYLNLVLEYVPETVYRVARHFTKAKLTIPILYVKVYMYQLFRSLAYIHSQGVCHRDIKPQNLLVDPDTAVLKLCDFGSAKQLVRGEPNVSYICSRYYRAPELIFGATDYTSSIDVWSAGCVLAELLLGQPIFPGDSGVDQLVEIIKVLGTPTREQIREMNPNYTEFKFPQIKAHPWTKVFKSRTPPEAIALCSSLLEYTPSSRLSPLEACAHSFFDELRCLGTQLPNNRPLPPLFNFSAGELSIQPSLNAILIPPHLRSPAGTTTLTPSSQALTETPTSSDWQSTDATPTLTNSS
Sequence of GSK3β (P49841 whole entry, species assumed): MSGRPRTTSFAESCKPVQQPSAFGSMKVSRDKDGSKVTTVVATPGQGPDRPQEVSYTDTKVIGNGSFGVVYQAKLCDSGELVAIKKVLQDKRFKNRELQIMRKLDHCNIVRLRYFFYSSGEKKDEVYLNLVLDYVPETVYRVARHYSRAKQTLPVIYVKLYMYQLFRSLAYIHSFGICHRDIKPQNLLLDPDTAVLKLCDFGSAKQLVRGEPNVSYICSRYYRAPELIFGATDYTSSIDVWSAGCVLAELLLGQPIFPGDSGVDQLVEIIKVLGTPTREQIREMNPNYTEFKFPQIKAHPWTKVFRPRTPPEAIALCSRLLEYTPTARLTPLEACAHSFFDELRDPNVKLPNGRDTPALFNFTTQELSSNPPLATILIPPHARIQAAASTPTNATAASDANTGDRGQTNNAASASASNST

Regarding `O=C(Nc1cnccc1C(O)C(F)(F)F)c1ccnc(NC(=O)C2CC2)c1` (stereo not drawn) [Example 23, 2-(Cyclopropanecarboxamido)-N-(4-(2,2,2-trifluoro-1-hydroxyethyl)pyridin-3-yl)isonicotinamide], the IC50 was determined as 2.4 nM against GSK3α, 48 nM in the assay with pTau (read-out: pTau (nM)) and 5.8 nM against GSK3β.

For `C[C@@H]1COCCN1c1ccncc1NC(=O)c1ccnc(NC(=O)C2CC2)c1` [Example 52, (R)-2-(cyclopropanecarboxamido)-N-(4-(3-methylmorpholino)pyridin-3-yl)isonicotinamide], the IC50 at GSK3α (setting [1]) is 0.21 nM; with pTau (read-out: pTau), 12 nM; against GSK3β it was 0.49 nM.

Regarding `C[C@H]1CN(c2ccncc2NC(=O)c2ccnc(NC(=O)C3CC3)c2)CCO1` (single isomer, unassigned) [Example 78], the results for the IC50 at GSK3α, with pTau (read-out: pTau (nM)) and at GSK3β were 0.35 nM, 18 nM and 0.99 nM, respectively.

On to `O=C(Nc1cncc(-c2cccc(F)n2)c1)c1ccnc(NC(=O)C2CC2)c1` [Example 165, 2-(cyclopropanecarboxamido)-N-(6-fluoro-[2,3′-bipyridin]-5′-yl)isonicotinamide], for which the IC50 at GSK3α (setting [1]) came to 1.3 nM; in the assay on pTau (read-out: pTau), 125 nM; at GSK3β (setting [2]) it was 3.8 nM.

As to `O=C(Nc1cnccc1-c1cncnc1)c1ccnc(NC(=O)C2CC2)c1` [Example 64, 2-(Cyclopropanecarboxamido)-N-(4-(pyrimidin-5-yl)pyridin-3-yl)isonicotinamide], the IC50 on GSK3α (setting [1]) is 76 nM; in the assay with pTau (read-out: pTau), no less than 10000 nM; on GSK3β (setting [2]) it was 97 nM.

Take `CC(C)C(=O)Nc1cc(C(=O)Nc2cncc(-c3ccccc3F)n2)ccn1` [Example 207, N-(6-(2-fluorophenyl)pyrazin-2-yl)-2-isobutyramidoisonicotinamide]: the IC50 at GSK3α (setting [1]) amounted to 1.1 nM; in the assay with pTau (read-out: pTau), 160 nM; on GSK3β (setting [2]) it was 2.5 nM.

Turning to `O=C(Nc1cnccc1N1CCCC(F)(F)C1)c1ccnc(NC(=O)C2CC2)c1` [Example 80, 2-(Cyclopropanecarboxamido)-N-(4-(3,3-difluoropiperidin-1-yl)pyridin-3-yl)isonicotinamide], the IC50 amounted to 0.46 nM on GSK3α (setting [1]), 34 nM in the assay on pTau (read-out: pTau) and 1.5 nM on GSK3β (setting [2]).

As to `CC(C)C(=O)Nc1cc(C(=O)Nc2cnc(F)cc2OCC(F)F)ccn1` [Example 187, N-(4-(2,2-difluoroethoxy)-6-fluoropyridin-3-yl)-2-isobutyramidoisonicotinamide], the results for the IC50 on GSK3α (setting [1]), with pTau (read-out: pTau) and on GSK3β (setting [2]) were 1.2 nM, 210 nM and 2.7 nM, respectively.

Turning to `CC(C)n1cc(NC(=O)c2ccnc(NC(=O)C3CC3)c2)cn1` [Example 171, 2-(cyclopropanecarboxamido)-N-(1-isopropyl-1H-pyrazol-4-yl)isonicotinamide], the IC50 was 170 nM on GSK3α (setting [1]), 4000 nM in the assay with pTau (read-out: pTau) and 370 nM at GSK3β (setting [2]).

`CC1(C)COCCN1c1ccncc1NC(=O)c1ccnc(NC(=O)C2CC2)c1` [Example 90, 2-(Cyclopropanecarboxamido)-N-(4-(3,3-dimethylmorpholino)pyridin-3-yl)isonicotinamide]: the IC50 at GSK3α (setting [1]) amounted to 0.1 nM; in the assay with pTau (read-out: pTau), 0.4 nM; at GSK3β, 0.15 nM.

For the compound `O=C(Nc1cncc(-c2cncc(Cl)c2)c1)c1ccnc(NC(=O)C2CC2)c1` [Example 160], the IC50 was determined as 1.6 nM at GSK3α (setting [1]), 150 nM in the assay on pTau (read-out: pTau) and 3.9 nM against GSK3β.

As for `CC(C)C(=O)Nc1cc(C(=O)Nc2cnccc2N2CCC(F)(F)CC2)c(F)cn1` [Example 206, N-(4-(4,4-difluoropiperidin-1-yl)pyridin-3-yl)-5-fluoro-2-isobutyramidoisonicotinamide], the IC50 on GSK3α (setting [1]) was 2.1 nM; in the assay with pTau (read-out: pTau) it was 190 nM; on GSK3β (setting [2]), 3 nM.

In the case of `O=C(Nc1cnccc1-c1ccc(Br)cc1)c1ccnc(NC(=O)C2CC2)c1` [Example 168, N-(4-(4-bromophenyl)pyridin-3-yl)-2-(cyclopropanecarboxamido)isonicotinamide], the IC50 on GSK3α (setting [1]) stood at 2.2 nM; with pTau (read-out: pTau) it was 240 nM; at GSK3β (setting [2]) it was 6.8 nM.

Regarding `O=C(Nc1cnccc1N1C2CCC1CC2)c1ccnc(NC(=O)C2CC2)c1` [Example 60, N-(4-(1s,4s)-7-azabicyclo[2.2.1]heptan-7-yl)pyridin-3-yl)-2-(cyclopropanecarboxamido)isonicotinamide], the IC50 at GSK3α (setting [1]) was determined as 5.7 nM; in the assay on pTau (read-out: pTau), 620 nM; on GSK3β (setting [2]), 16 nM.

Turning to `O=C(Nc1cnn(CC(F)(F)F)c1)c1ccnc(NC(=O)C2CC2)c1` [Example 172, 2-(cyclopropanecarboxamido)-N-(1-(2,2,2-trifluoroethyl)-1H-pyrazol-4-yl)isonicotinamide], the IC50 turned out to be 14 nM on GSK3α (setting [1]), 700 nM with pTau (read-out: pTau) and 35 nM on GSK3β (setting [2]).

On to `CC(C)C(=O)Nc1cc(C(=O)Nc2cnccc2OCCN2CCCC2)ccn1` [Example 188, 2-Isobutyramido-N-(4-(2-(pyrrolidin-1-yl)ethoxy)pyridin-3-yl)isonicotinamide], for which the IC50 on GSK3α (setting [1]) amounted to 19 nM; in the assay with pTau (read-out: pTau), 2200 nM; at GSK3β (setting [2]) it was 39 nM.

For `O=C(Nc1cncc(-c2cncc(F)c2)c1)c1ccnc(NC(=O)C2CC2)c1` [Example 161, 2-(cyclopropanecarboxamido)-N-(5′-fluoro-[3,3′-bipyridin]-5-yl)isonicotinamide], the IC50 on GSK3α (setting [1]) was determined as 0.6 nM; in the assay on pTau (read-out: pTau) it was 175 nM; on GSK3β (setting [2]) it was 1.7 nM.

In the case of `O=C(Nc1cncc(-c2ccc(Cl)cc2Cl)c1)c1ccnc(NC(=O)C2CC2)c1` [Example 148, 2-(cyclopropanecarboxamido)-N-(5-(2,4-dichlorophenyl)pyridin-3-yl)isonicotinami], the figures for the IC50 on GSK3α (setting [1]), with pTau (read-out: pTau) and at GSK3β (setting [2]) were 2.4 nM, 620 nM and 9.7 nM, respectively.

As for `O=C(Nc1c(-c2ccccc2)ncc2ccccc12)c1ccnc(NC(=O)C2CC2)c1` [Example 63, 2-(Cyclopropanecarboxamido)-N-(3-phenylisoquinolin-4-yl)isonicotinamide], the figures for the IC50 at GSK3α (setting [1]), in the assay with pTau (read-out: pTau) and at GSK3β (setting [2]) were 56 nM, 4100 nM and 12 nM, respectively.

As to `O=C(Nc1cnccc1-c1ccccc1)c1ccnc(NC(=O)[C@@H]2C[C@H]2c2ccccc2)c1` (relative stereo) [Example 99, 2-((Trans)-2-phenylcyclopropanecarboxamido)-N-(4-phenylpyridin-3-yl)isonicotinamide], the IC50 turned out to be 24 nM at GSK3α (setting [1]), 4500 nM with pTau (read-out: pTau) and 1.8 nM on GSK3β (setting [2]).

Take `CC(C)(C)C(=O)Nc1cc(C(=O)Nc2cncc(-c3cccc(F)c3F)c2)ccn1` [Example 209, N-(5-(2,3-difluorophenyl)pyridin-3-yl)-2-pivalamidoisonicotinamide]: the IC50 at GSK3α (setting [1]) is 14 nM; in the assay on pTau (read-out: pTau) it was 2100 nM; at GSK3β it was 24 nM.

On to `O=C(Nc1cncc(-c2ccccc2)c1)c1ccnc(NC(=O)C2CCC(F)(F)C2)c1` (stereo not drawn) [Example 233, 2-(3,3-difluorocyclopentanecarboxamido)-N-(5-phenylpyridin-3-yl)isonicotinamide], for which the IC50 at GSK3α (setting [1]) worked out at 0.33 nM; in the assay on pTau (read-out: pTau), 340 nM; at GSK3β (setting [2]), 1 nM.

In the case of `CC(C)C(=O)Nc1cc(C(=O)Nc2cnccc2OCC(C)(F)F)ccn1` [Example 202, N-(4-(2,2-Difluoropropoxy)pyridin-3-yl)-2-isobutyramidoisonicotinamide], the IC50 on GSK3α was 0.46 nM; in the assay with pTau (read-out: pTau (nM)), 50 nM; on GSK3β, 1 nM.

Regarding `CC(=O)c1ccncc1NC(=O)c1ccnc(NC(=O)C2CC2)c1` [Example 14, N-(4-acetylpyridin-3-yl)-2-(cyclopropanecarboxamido)isonicotinamide], the IC50 on GSK3α (setting [1]) turned out to be 0.54 nM; in the assay on pTau (read-out: pTau) it was 76 nM; at GSK3β, 0.85 nM.

Turning to `O=C(Nc1cncc(-c2ccc(F)cc2)c1)c1ccnc(NC(=O)C2CC2)c1` [Example 111, 2-(cyclopropanecarboxamido)-N-(5-(4-fluorophenyl)pyridin-3-yl)isonicotinamide], the IC50 on GSK3α (setting [1]) worked out at 0.95 nM; in the assay with pTau (read-out: pTau), 570 nM; at GSK3β it was 6.4 nM.

For `O=C(Nc1cnccc1N1CCC(F)(F)C1)c1ccnc(NC(=O)C2CC2)c1` [Example 83, 2-(Cyclopropanecarboxamido)-N-(4-(3,3-difluoropyrrolidin-1-yl)pyridin-3-yl)isonicotinamide], the IC50 on GSK3α (setting [1]) is 49 nM; in the assay on pTau (read-out: pTau), 4400 nM; at GSK3β (setting [2]) it was 71 nM.

Turning to `O=C(Nc1cnccc1N1CCC(F)(F)CC1)c1ccnc(NC(=O)C2CC2)c1` [Example 45, 2-(Cyclopropanecarboxamido)-N-(4-(4,4-difluoropiperidin-1-yl)pyridin-3-yl)isonicotinamide], the results for the IC50 at GSK3α, with pTau (read-out: pTau (nM)) and against GSK3β were 0.19 nM, 5.1 nM and 0.22 nM, respectively.

Regarding `O=C(Nc1cnccc1-c1ccccc1)c1ccnc(NC(=O)C2CC(F)(F)C2)c1` [Example 216, 2-(3,3-Difluorocyclobutanecarboxamido)-N-(4-phenylpyridin-3-yl)isonicotinamide], the results for the IC50 on GSK3α (setting [1]), in the assay with pTau (read-out: pTau) and at GSK3β were 3.4 nM, 120 nM and 1.9 nM, respectively.

In the case of `O=C(Nc1cncc(N2CCOCC2)c1)c1ccnc(NC(=O)C2CC2)c1` [Example 109, 2-(cyclopropanecarboxamido)-N-(5-morpholinopyridin-3-yl)isonicotinamide], the IC50 at GSK3α (setting [1]) is 17 nM; in the assay with pTau (read-out: pTau), 2000 nM; at GSK3β, 73 nM.

Regarding `Cc1ccc(NC(=O)c2ccnc(NC(=O)C3CC3)c2)cn1` [Example 11, 2-(Cyclopropanecarboxamido)-N-(6-methylpyridin-3-yl)isonicotinamide], the IC50 stood at 15 nM on GSK3α (setting [1]), 2200 nM in the assay on pTau (read-out: pTau) and 30 nM at GSK3β (setting [2]).
